The values that follow are results of earlier work, collected in patent US7714131B2, “Process for the stereoselective preparation of (−)-halofenate and derivatives thereof” (Metabolex, Inc., priority 2005, dated 2010).

This data set concerns the target cytochrome P450 2C9 (Homo sapiens, UniProt P11712). The conditions noted are these: compared to the (+)-enantiomer of halofenic acid.

Chain of cytochrome P450 2C9 (P11712 whole entry): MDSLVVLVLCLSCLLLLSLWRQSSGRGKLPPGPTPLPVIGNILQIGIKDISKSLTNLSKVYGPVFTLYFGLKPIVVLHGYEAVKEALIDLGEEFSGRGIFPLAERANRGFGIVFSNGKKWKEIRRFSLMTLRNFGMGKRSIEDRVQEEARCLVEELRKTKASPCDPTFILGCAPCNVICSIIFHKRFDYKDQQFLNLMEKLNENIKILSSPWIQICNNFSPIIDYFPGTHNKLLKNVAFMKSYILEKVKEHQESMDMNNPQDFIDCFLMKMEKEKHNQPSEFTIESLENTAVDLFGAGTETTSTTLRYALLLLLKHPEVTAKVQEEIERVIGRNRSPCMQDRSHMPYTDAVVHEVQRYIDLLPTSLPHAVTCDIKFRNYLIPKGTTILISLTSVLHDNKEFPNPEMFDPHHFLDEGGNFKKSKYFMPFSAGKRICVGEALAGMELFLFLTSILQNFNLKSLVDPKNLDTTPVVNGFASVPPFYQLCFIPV

For `O=C(O)C(Oc1cccc(C(F)(F)F)c1)c1ccc(Cl)cc1` (single isomer, unassigned; (-)) [(−)-enantiomer of halofenic acid, (4-chlorophenyl)(3-trifluoromethylphenoxy)acetic acid], the “ability to inhibit cytochrome P450 2C9, relative activity” value was “about twenty-fold less active”.
